{"source": "patent US20050112128A1", "about": "“Inhibition of protein kinase c-mu (PKD) as a treatment for cardiac hypertrophy and heart failure” (Myogen, Inc. and Board of Regents, The University of Texas …, priority 2003, published 2005)", "key": {"[1]": {"test_system": "nuclear export of GFP-HDAC5 in NRVMs", "test": "Quantitative HDAC5 nuclear export assay in NRVMs (Cellomics High Content Imaging System)", "type": "cell-based, rat", "conditions": "2 hrs"}, "[2]": {"test_system": "association of HDAC5 and 14-3-3", "test": "Immunoprecipitation/immunoblotting of HDAC5 and 14-3-3 in NRVMs", "type": "cell-based, rat", "conditions": "inhibitor 10 μM, 1 hr before PE (20 μM) or ET-1 (50 nM) for 1 hr"}, "HDAC5-bound PKD": {"target": "T1, HDAC5-bound PKD (Rattus norvegicus, UniProt Q9WTQ1)", "T1 construct": "Association of endogenous PKD with HDAC5 in cardiomyocytes; endogenous in cells; host or cells: neonatal rat ventricular myocytes; the kinase co-precipitated with adenoviral FLAG-HDAC5", "T1 sequence (Q9WTQ1 1-918)": "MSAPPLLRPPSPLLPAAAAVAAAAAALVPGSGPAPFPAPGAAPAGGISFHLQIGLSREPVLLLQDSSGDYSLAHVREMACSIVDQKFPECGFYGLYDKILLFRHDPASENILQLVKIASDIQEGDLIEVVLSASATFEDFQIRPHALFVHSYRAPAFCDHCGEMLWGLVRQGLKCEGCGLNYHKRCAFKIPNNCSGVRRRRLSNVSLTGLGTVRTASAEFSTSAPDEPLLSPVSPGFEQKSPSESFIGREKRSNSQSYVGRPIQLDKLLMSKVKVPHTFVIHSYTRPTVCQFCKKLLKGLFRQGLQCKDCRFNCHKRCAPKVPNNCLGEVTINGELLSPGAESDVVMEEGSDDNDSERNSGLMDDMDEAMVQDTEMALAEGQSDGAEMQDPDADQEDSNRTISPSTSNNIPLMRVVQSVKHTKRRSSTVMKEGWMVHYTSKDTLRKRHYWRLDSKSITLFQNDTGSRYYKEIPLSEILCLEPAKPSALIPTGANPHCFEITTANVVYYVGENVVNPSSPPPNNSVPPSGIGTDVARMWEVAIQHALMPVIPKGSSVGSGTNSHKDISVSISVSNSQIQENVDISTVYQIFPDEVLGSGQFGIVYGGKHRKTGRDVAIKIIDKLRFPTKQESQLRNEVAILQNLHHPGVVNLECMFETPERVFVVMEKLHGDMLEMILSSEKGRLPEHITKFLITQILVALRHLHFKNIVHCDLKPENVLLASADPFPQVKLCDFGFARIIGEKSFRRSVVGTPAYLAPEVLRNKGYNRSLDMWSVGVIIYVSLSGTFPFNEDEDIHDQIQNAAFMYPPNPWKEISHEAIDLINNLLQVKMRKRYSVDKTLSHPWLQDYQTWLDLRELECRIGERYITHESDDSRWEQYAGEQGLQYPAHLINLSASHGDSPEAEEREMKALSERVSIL", "type": "biochemical", "conditions": "10 μM inhibitor in kinase reaction mixture (post)"}, "PKD": {"target": "T2, PKD (Homo sapiens, UniProt Q15139)", "T2 sequence (Q15139 1-912)": "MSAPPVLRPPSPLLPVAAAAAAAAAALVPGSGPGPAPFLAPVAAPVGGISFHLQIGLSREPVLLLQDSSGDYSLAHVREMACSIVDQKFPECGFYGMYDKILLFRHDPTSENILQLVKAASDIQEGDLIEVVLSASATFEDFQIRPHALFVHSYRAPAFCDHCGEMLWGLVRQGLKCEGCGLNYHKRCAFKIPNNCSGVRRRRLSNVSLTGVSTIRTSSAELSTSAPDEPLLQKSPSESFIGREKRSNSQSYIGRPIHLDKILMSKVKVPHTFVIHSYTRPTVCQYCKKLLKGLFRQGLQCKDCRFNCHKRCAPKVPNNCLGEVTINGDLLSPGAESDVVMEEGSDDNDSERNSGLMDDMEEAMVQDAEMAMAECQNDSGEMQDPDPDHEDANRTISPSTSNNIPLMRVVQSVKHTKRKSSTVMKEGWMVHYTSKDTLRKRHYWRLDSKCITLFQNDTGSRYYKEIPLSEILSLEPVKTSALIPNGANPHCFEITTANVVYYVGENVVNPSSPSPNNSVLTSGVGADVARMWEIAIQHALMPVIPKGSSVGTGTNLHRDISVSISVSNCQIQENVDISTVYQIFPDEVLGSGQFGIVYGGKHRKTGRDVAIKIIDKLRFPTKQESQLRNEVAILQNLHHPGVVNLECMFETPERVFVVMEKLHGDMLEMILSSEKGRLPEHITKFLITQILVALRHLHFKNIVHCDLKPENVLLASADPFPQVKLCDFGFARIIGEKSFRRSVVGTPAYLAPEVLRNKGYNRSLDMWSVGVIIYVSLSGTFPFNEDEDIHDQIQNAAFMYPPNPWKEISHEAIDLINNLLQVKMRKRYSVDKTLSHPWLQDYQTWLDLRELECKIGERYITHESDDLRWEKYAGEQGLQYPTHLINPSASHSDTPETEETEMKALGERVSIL", "conditions": "literature (Van Lint 2002; Gschwendt 1996; Haworth); cited from earlier work"}, "NRVMs": {"test_system": "NRVMs", "test": "ANF immunostaining of cardiomyocytes (hypertrophy marker)", "type": "cell-based, rat", "conditions": "PE 20 μM or PMA 100 nM, 24 hrs", "procedure": "FIGS. 3A-C—Inhibition of PKC-mediated cardiac hypertrophy by signalresistant HDAC5. NRVMs were cultured on 6-well dishes and infected with adenoviruses (MOI=10) encoding a LacZ control (Ad-LacZ) or FLAG-tagged HDAC5 harboring alanines in place of serines 259 and 498 (Ad-HDAC5 S/A), which are required for 14-3-3-mediated nuclear export. Cells were treated with PE (20 μM) or PMA (100 nM) for 24 hrs prior to analysis. FIG. 3A. Cells were fixed and sarcomeres visualized by indirect immunofluorescence with primary antibody specific for α-actinin and fluorescein-conjugated secondary antibody. FIG. 3B. ANF protein was detected by indirect immunofluorescence with anti-ANF primary antibody. FIG. 3C. Total RNA was harvested from cells and subjected to dot blot analysis with radiolabeled oligonucleotides specific for the indicated transcripts. RNA levels were quantified using a phosphorimager and are depicted as -fold change relative to amounts in unstimulated cells infected with Ad-LacZ. Values were normalized to GAPDH controls.\nCell culture and transfection assays. COS cells were maintained in DMEM with FBS (10%), L-glutamine (2 mM), and penicillin-streptomycin. Transfection of COS cells was performed with Fugene 6 (Roche Molecular Biochemicals) according to manufacturer's instructions. […]"}, "endogenous PKD": {"test_system": "endogenous PKD", "test": "Co-immunoprecipitation of endogenous PKD with HDAC5 in NRVMs (total PKD and p-916 immunoblot)", "type": "cell-based, rat", "conditions": "PE 20 μM 1 hr, absence or presence of Bis I 10 μM"}, "ras transformed cells": {"test_system": "ras transformed cells", "conditions": "Taunton et al., 1996; cited from earlier work"}, "[3]": {"conditions": "Takahashi et al., 1996; cited from earlier work"}}, "note": "“Also recorded” adds a separate entry of the source."}
{"smiles": "Cn1c2ccccc2c2c3c(c4c5ccccc5n(CCC#N)c4c21)CNC3=O", "note": "[Gö6976]", "values": [{"measurement": "block of ET-1-induced nuclear export of HDAC5", "setting": "[1]; NRVMs, ET-1 50 nM, inhibitor pre-treatment 30 min", "result": "efficiently blocked nuclear export of HDAC5"}, {"measurement": "block of FBS-induced nuclear export of HDAC5", "setting": "[1]; NRVMs, FBS 10%, inhibitor pre-treatment 30 min", "result": "efficiently blocked nuclear export of HDAC5"}, {"measurement": "block of PE-induced nuclear export of HDAC5", "setting": "[1]; NRVMs, PE 20 μM, inhibitor pre-treatment 30 min, KN93, wortmannin, staurosporine 1 mM, U1026, HA1077, Y-27632, DAG Kinase inhibitor II, SB216763, Bis I 10 mM, rapamycin 30 ng/ml, Gö6983 10 μM", "result": "efficiently blocked nuclear export of HDAC5"}, {"measurement": "block of association of HDAC5 and 14-3-3", "setting": "[2]", "result": "blocked association of HDAC5 and 14-3-3 in response to both PE and ET-1"}, {"measurement": "block of HDAC5 phosphorylation, inhibitor added directly to kinase reaction", "setting": "HDAC5-bound PKD", "result": "blocked phosphorylation of HDAC5; also recorded: blocked phosphoryl transfer to HDAC5"}, {"measurement": "sensitivity of PKD to the inhibitor", "setting": "PKD", "result": "sensitive to Gö6976"}]}
{"smiles": "CNC[C@H](O)c1cccc(O)c1", "note": "[PE, phenylephrine]", "values": [{"measurement": "agonist-triggered nuclear export of HDAC5 in cardiomyocytes", "setting": "[1]; NRVMs infected with Ad-GFP-HDAC5, PE 0.1 to 20 μM, ET-1 50 nM, FBS 10%", "result": "triggered nuclear export of HDAC5 in a concentration-dependent manner; also recorded: triggered dose-dependent nuclear export of HDAC5"}, {"measurement": "ANF protein expression", "setting": "NRVMs", "result": "prominent perinuclear ANF protein expression"}, {"measurement": "activation of HDAC5-associated PKD", "setting": "endogenous PKD", "result": "became activated in a PKC-dependent manner"}]}
{"smiles": "CC(/C=C/C(=O)NO)=C\\[C@@H](C)C(=O)c1ccc(N(C)C)cc1", "note": "[Trichostatin A]", "values": [{"measurement": "effect on acetylation and morphology of ras transformed cells", "setting": "ras transformed cells", "result": "induce hyperacetylation and cause reversion of ras transformed cells to normal morphology"}, {"measurement": "immunosuppression in a mouse model", "setting": "[3]", "result": "induces immunsuppression in a mouse model"}]}
